Reference: US20040191168A1, “Tumor cell killing by cell cycle checkpoint abrogation combined with Inhibition of the classical mitogen activated protein (map) kinase pathway” (priority 2000, published 2004)
Read-outs that look alike come from different tables or passages of the source.

What was measured:
[1] = tested on: U937 cells; assay: Morphological assessment of apoptosis (Wright-Giemsa cytospins) in U937 cells; format: cell-based, human; settings: for effect on apoptosis in PD184352/UCN-01-treated cells / effect on induction of apoptosis by UCN-01 and PD184352: UCN-01 150 nM + PD184352 10 μM; for effect on apoptosis in PD184352/UCN-01-treated cells: SB203580 10 μM, CHX 1 mM; for Apoptotic cells (%): PD184352 10 μM, GFX 1 μM, safingol 2 μM, mean ± SD; for effect on induction of apoptosis by UCN-01 and PD184352: 10 h, caspase inhibitor 20 μM
Procedure: (§1) Experimental Format. All of the experiments were performed using logarithmically growing cells (3-5×10^5 cells/ml). Cell suspensions were placed in sterile 25 cm^2 T-flasks (Corning, Corning, N.Y.) and incubated with MEK or PKC inhibitors for 30 min at 37° C. At the end of this period, UCN-01 (or in some cases, caffeine) was added to the suspension, and the flasks were placed in 37° C./5% CO2 incubator at various intervals, generally 18 h. In some studies, the p38 MAP kinase inhibitor SB203580 was added concurrently with MEK inhibitors. After drug treatment, cells were harvested and subjected to further analysis as described below.
Analysis of Apoptosis. […] For each condition, 5 to 10 randomly selected fields/condition were evaluated, encompassing at least 500 cells (Vrana and Grant, 2001). To confirm the results of morphological analysis, in some cases cells were also evaluated by TUNEL staining (Gorczyca et al., 1993) and assessment of oligonucleosomal DNA fragmentation of total DNA. DNA fragmentation was analyzed by 1.8% agarose gel electrophoresis as described previously (Jarvis et al., 1994). For TUNEL staining, cytocentrifuge preparations were obtained and fixed with 4% formaldehyde. The slides were treated with acetic acid/ethanol (1:2), stained with terminal transferase reaction mixture containing terminal transferase reaction buffer, 0.25 units/ ml terminal transferase, 2.5 mM CoCl2, and 2 pmol fluorescein-12-dUTP (Boehringer Mannheim, Indianapolis, Ind.), and visualized using fluorescence microscopy.

[2] = tested on: U937 cells; assay: Loss of mitochondrial membrane potential (reduced DiOC6 uptake, flow cytometry) in U937 cells; format: cell-based, human; settings: for effect on mitochondrial injury (loss of ΔΨm) in PD184352/UCN-01-treated cells / effect on loss of ΔΨm by UCN-01 and PD184352: UCN-01 150 nM + PD184352 10 μM; for effect on mitochondrial injury (loss of ΔΨm) in PD184352/UCN-01-treated cells: SB203580 10 μM, CHX 1 mM; for "Low" DiOC6 (% cells): PD184352 10 μM, GFX 1 μM, safingol 2 μM, mean ± SD; for effect on loss of ΔΨm by UCN-01 and PD184352: 10 h, caspase inhibitor 20 μM
Procedure: as §1
Analysis of Mitochondrial Membrane Potential (ΔΨm). Cells 2×10^5 were incubated with 40 nM DiOC6 (Molecular Probes Inc., Eugene, Oreg.) in PBS at 37° C. for 20 min and then analyzed by flow cytometry as described previously (Wang et al., 1999).

[3] = tested on: MCF7 cells; assay: Colony forming (clonogenic) assay in MCF7 cells; format: cell-based, human; settings: 25 μM PD98059, 150 nM UCN-01, replated 48 h, ± SEM
Procedure: (§2) Colony forming (clonogenic) assay. Cells were plated 36 h prior to experimentation. Cells were pre-treated with MEK1/2 inhibitor as indicated, 2 h prior to exposure. Cells were irradiated (2 Gy). After a further 48 h, cells were isolated by tryptic digestion and single cell suspensions plated on Linbro® plates at densities of 500 cells/well and 1000 cells/well. Colony formation was defined as a colony of 50 cells or greater, 10 days after plating.

[4] = tested on: MDA-MB-231 cells; assay: Colony forming (clonogenic) assay in MDA-MB-231 cells; format: cell-based, human; settings: MDA-MB-231 (MDA), 25 μM PD98059, 150 nM UCN-01, replated 48 h, ± SEM
Procedure: as §2

[5] = tested on: MAPK/ERK; assay: p42 MAPK immune complex kinase assay in carcinoma cells; format: cell-based, human; settings: MCF7, MDA-MB-231, T47D and DU145 cells; UCN-01 150 nM; MEK1/2 inhibitors (PD98059 25 μM, PD184352 10 μM, U0126 5 μM) given with UCN-01
Procedure: Immunoprecipitations from Lysates. Fifty microliters of Protein A agarose (Ag) slurry (25 μl bead volume) was washed twice with 1 ml PBS containing 0.1% (v/v) Tween 20, and resuspended in 0.1 ml of the same buffer. Antibodies (2 μg, 20 μl), serum (20 μl) were added to each tube and incubated (3 h, 4° C.). For pre-conjugated antibodies,10 μl of slurry (4 μg antibody) was used. Clarified equal aliquots of lysates (0.25 ml, 100 μg total protein) were mixed with Ag-conjugated antibodies in duplicate using gentle agitation (2.5 h, 4° C.). Ag-antibody-antigen complexes were recovered by centrifugation, the supernatant discarded, and washed (10 min) sequentially with 0.5 ml buffer A (twice), PBS and buffer B [25 mM Hepes, pH 7.4, 0.1 mM Na3VO4].
Assay of p42^MAPK activity. Immunoprecipitates were incubated (final volume 50 μl ) with 50 μl of buffer B containing 0.2 mM [γ-^32P]ATP (5000 cpm/pmol), 1 μM Microcystin-LR, 0.5 mg/ml myelin basic protein NP), which initiated reactions at time=0. After 20 min., 40 μl of the reaction mixtures were spotted onto a 2 cm circle of P81 paper (Whatman, Maidstone, England) and immediately placed into 180 mM phosphoric acid. Papers were washed four times (10 min each) with phosphoric acid, and once with acetone, and ^32P-incorporation into MBP was quantified by liquid scintillation spectroscopy.

[6] = tested on: DU145 cells; assay: Colony forming (clonogenic) assay in DU145 cells; format: cell-based, human; settings: 25 μM PD98059, 150 nM UCN-01, replated 48 h, ± SEM
Procedure: as §2

[7] = tested on: T47D cells; assay: Colony forming (clonogenic) assay in T47D cells; format: cell-based, human; settings: 25 μM PD98059, 150 nM UCN-01, replated 48 h, ± SEM
Procedure: as §2

[8] = tested on: MCF7 cells; settings: MCF7, 24 h; with 150 nM UCN-01; PD184352 10 μM, U0126 5 μM; FIG. 8B
Procedure: Terminal Uridyl-Nucleotide End Labeling (TUNEL) for apoptosis. […] Cells were isolated 24 h after irradiation by trypsinizationi followed by centrifugation onto glass slides (cytospin). Terminal Uridyl-Nucleotide End Labeling (TUNEL) was performed on these cells as described previously [Wang et al., 1999; Park et al., 1999]. Randomly selected fields of fixed cells (150 cells per field, n=5 per slide) were counted initially using propidium iodide counter stain, followed by examination and counting of TUNEL positive staining cells of the same field under FITC/fluorescence light.

[9] = tested on: MDA-MB-231 cells; assay: TUNEL apoptosis in MDA-MB-231 cells; format: cell-based, human; settings: MDA-MB-231, 24 h; with 150 nM UCN-01; PD184352 10 μM, U0126 5 μM; FIG. 8A
Source text: (§3) Terminal Uridyl-Nucleotide End Labeling (TUNEL) for apoptosis.

[10] = tested on: mammary and prostate carcinoma cells; assay: Apoptosis by double stranded DNA breaks (TUNEL) in carcinoma cells, all cell types examined; format: cell-based, human; settings: for effect on potentiation of apoptosis by MEK1/2 inhibitor and UCN-01: carcinoma cells, 24 h, 25 μM PD98059 + 150 nM UCN-01, caspase inhibitor 20 μM
Source text: as §3

`C[C@@H]1C[C@@H]([C@H](O)CC2CC(=O)NC(=O)C2)C(=O)[C@@H](C)C1` [CHX, cycloheximide] was tested. Which “effect on apoptosis in PD184352/UCN-01-treated cells” value ([1]; U937 cells, 18 h) did it give?
The value was “not attenuated”.

What about the “effect on mitochondrial injury (loss of ΔΨm) in PD184352/UCN-01-treated cells” value ([2]; 18 h) of the same compound?
Its value is “not attenuated”.

What does the source list for `Cn1c(=O)c2c(ncn2C)n(C)c1=O` [Caffeine]?
apoptosis in PD184352-treated cells ([1]; U937 cells, 18 h, caffeine 2 mM with PD184352 10 μM, FIG. 4A): substantially increased; mitochondrial damage (reduction in ΔΨm) in PD184352-treated cells ([2]; 18 h, caffeine 2 mM with PD184352 10 μM, FIG. 4A): substantially increased

How did the “percentage of apoptotic cells” value ([1]; U937 cells, 24 hr, 100 nM UCN-01, 10 μM LY294002, FIG. 14) turn out when `O=c1cc(N2CCOCC2)oc2c(-c3ccccc3)cccc12` [LY294002] was run?
The value was “about 20%”.

Which “clonogenic survival (colonies, normalized to control unirradiated cells = 100%)” value ([3]; MCF7, 2 Gy) does the source give for `COc1cccc(-c2cc(=O)c3ccccc3o2)c1N` [PD98059] here?
The value was 39 ± 3 %.

What about the “clonogenic survival (colonies, normalized to control unirradiated cells = 100%)” value ([3]; MCF7, mock irradiated) of the same compound?
The value was 91 ± 5%.

And the “clonogenic survival (colonies, normalized to control unirradiated cells = 100%)” value ([4]; 2 Gy)?
Its value is 44 ± 1 %.

And the “clonogenic survival (colonies, normalized to control unirradiated cells = 100%)” value ([4]; mock irradiated)?
The value was 91 ± 1%.

And the “MAPK/ERK activity (immune complex kinase assay)” value [5]?
The value was “opposed”.

And the “clonogenic survival (colonies, normalized to control unirradiated cells = 100%)” value ([6]; DU145, 2 Gy)?
Its value is 65 ± 2%.

And the “clonogenic survival (colonies, normalized to control unirradiated cells = 100%)” value ([6]; DU145, mock irradiated)?
Its value is 99 ± 6%.

And the “cell death (morphological features of apoptosis) on coadministration with UCN-01” value ([1]; U937 cells, 24 h, with 200 nM UCN-01, PD98059 50 μM, U0126 20 μM (FIG. 1C, D))?
The value was “marked potentiation of cell death”.

And the “clonogenic survival (colonies, normalized to control unirradiated cells = 100%)” value ([7]; 2 Gy)?
Its value is 69 ± 5%.

And the “clonogenic survival (colonies, normalized to control unirradiated cells = 100%)” value ([7]; mock irradiated)?
The value was 97 ± 2%.

How did the “effect on apoptosis in PD184352/UCN-01-treated cells” value ([1]; U937 cells, 18 h) turn out when `C[S+]([O-])c1ccc(-c2nc(-c3ccncc3)c(-c3ccc(F)cc3)[nH]2)cc1` (centres unmarked) [SB203580] was run?
Its value is “only partially attenuated”.

What about the “effect on mitochondrial injury (loss of ΔΨm) in PD184352/UCN-01-treated cells” value ([2]; 18 h) of the same compound?
Its value is “only partially attenuated”.

How did the “Apoptotic cells (%)” value ([1]; U937 cells, 18 h) turn out when `CCCCCCCCCCCCCCC[C@H](O)[C@@H](N)CO` [Safingol] was run?
Its value is 1.9 ± 0.2%.

And the “"Low" DiOC6 (% cells)” value ([2]; 18 h)?
Its value is 13.6 ± 0.8%.

With `N#CC(=C(/N)Sc1ccccc1N)/C(C#N)=C(\N)Sc1ccccc1N` [U0126] as the compound, how does the “apoptosis in combination with UCN-01” value [8] read?
The value was “enhanced apoptosis”.

What about the “MAPK/ERK activity (immune complex kinase assay)” value [5] of the same compound?
The value was “opposed”.

And the “apoptosis in combination with UCN-01” value [9]?
The value was “enhanced apoptosis”.

What about the “cell death (morphological features of apoptosis) on coadministration with UCN-01” value [1] of the same compound?
Its value is “marked potentiation of cell death”.

How did the “effect on potentiation of apoptosis by MEK1/2 inhibitor and UCN-01” value [10] turn out when IETD was run?
Its value is “partially attenuated”.

And the “effect on induction of apoptosis by UCN-01 and PD184352” value ([1]; U937 cells)?
The value was “ineffective”.

And the “effect on loss of ΔΨm by UCN-01 and PD184352” value [2]?
Its value is “ineffective”.

ZVAD-fmk was tested. Which “effect on potentiation of apoptosis by MEK1/2 inhibitor and UCN-01” value [10] did it give?
The value was “abolished”.

What about the “effect on induction of apoptosis by UCN-01 and PD184352” value ([1]; U937 cells) of the same compound?
Its value is “blocked”.

And the “effect on loss of ΔΨm by UCN-01 and PD184352” value [2]?
The value was “blocked”.

With bisindolylmaleimide [GFX] as the compound, how does the “apoptosis after 24 h” value ([10]; all carcinoma cell types examined, bisindolylmaleimide 1 μM in place of UCN-01) read?
The value was “did not mimic the actions of UCN-01”.

What about the “Apoptotic cells (%)” value ([1]; U937 cells, 18 h) of the same compound?
The value was 1.9 ± 0.2%.

What about the “"Low" DiOC6 (% cells)” value ([2]; 18 h) of the same compound?
The value was 13.2 ± 0.6%.
